Test results from patent publication US20250268826A1, “IONIZABLE LIPIDOID COMPOSITIONS AND THERAPEUTIC USES THEREOF” (Flagship Pioneering Innovations VII, LLC, priority 2023, published 2025).
“And” between values parts separate entries of the source, which are not always exact repeats. Equal values may be shown once. Read-outs that look alike come from different tables or passages of the source.

Tests used:
Format in all cases: physicochemical
[1] = LNP size and polydispersity index (PDI) by dynamic light scattering (DLS)
[2] = LNP Zeta potential measured using a Zetasizer (Malvern); conditions: for Zeta potential (mV): LNP with hEPO mRNA, N:P ratio 6
[3] = Encapsulation efficiency (EE %) by fluorescence based Ribogreen assay
[4] = Table 1, LNP lipid:DSPC:Cholesterol:DMG-PEG2k 50:10:38.5:1.5 mol %, hEPO mRNA, N:P 6
[5] = Table 2, LNP 20:10:68.5:1.5 mol %, EGFP mRNA, N:P 2.4
[6] = Table 2, LNP 20:40:38.5:1.5 mol %, EGFP mRNA, N:P 2.4
[7] = Table 2, LNP 30:10:58.5:1.5 mol %, EGFP mRNA, N:P 3.6
[8] = Table 2, LNP 30:30:38.5:1.5 mol %, EGFP mRNA, N:P 3.6
[9] = Table 2, LNP 40:10:48.5:1.5 mol %, EGFP mRNA, N:P 4.8
[10] = Table 2, LNP 40:20:38.5:1.5 mol %, EGFP mRNA, N:P 4.8
[11] = Table 2, LNP 50:10:38.5:1.5 mol %, EGFP mRNA, N:P 6
[12] = Table 3, LNP 50:10:38.5:1.5 mol %, hEPO mRNA, N:P 6
[13] = Table 9, LNP 50:10:38.5:1.5 mol %, hEPO mRNA, N:P 6
[14] = Table 9, LNP Lipid:DSPC:Cholesterol:DMG-PEG2k 50:10:38.5:1.5 mol %, hEPO mRNA, N:P 6
[15] = Table 8, LNP 50:10:38.5:1.5 mol %, hEPO mRNA, N:P 6
[16] = Table 8, LNP Lipid:DSPC:Cholesterol:DMG-PEG2k 50:10:38.5:1.5 mol %, hEPO mRNA, N:P 6
[17] = Table 6, LNP 50:10:38.5:1.5 mol %, hEPO mRNA, N:P 6
[18] = Table 6, LNP 60:0:38.5:1.5 mol %, hEPO mRNA, N:P 6
[19] = Table 5, LNP 50:10:38.5:1.5 mol %, hEPO mRNA, N:P 6
[20] = Table 5, LNP 60:0:38.5:1.5 mol %, hEPO mRNA, N:P 6
[21] = Table 5, LNP Lipid:DSPC:Cholesterol:DMG-PEG2k 50:10:38.5:1.5 mol %, hEPO mRNA, N:P 6
[22] = Table 10, LNP with hEPO mRNA, Lipid:DSPC:Cholesterol:DMG-PEG2k 50:10:38.5:1.5 mol %, N:P ratio 6, DLS

With `CCCCCCCCCCCC(=O)OCCN(CCOC(=O)CCCCCCCCCCC)C(=O)C(N)Cc1c[nH]cn1` (stereo not shown) [Compound 127] the PDI [1, 4] was 0.387, the Size [1, 4] was 85.9 nm and the Zeta potential [2, 4] was 6.011 mV. For the same compound, the “Encapsulation Efficiency %” value [3, 4] was 89.5%.

Work on `CCCCCCCCC(CCCCCC)C(=O)OCCN(CCOC(=O)C(CCCCCC)CCCCCCCC)C(=O)C(C)N` (stereo not shown) [Compound 111] yielded a PDI [1, 4] of 0.223, a Size [1, 4] of 93.4 nm and a PDI [1, 5] of 0.129. The PDI [1, 6] was 0.095, the PDI [1, 7] was 0.082 and the PDI [1, 8] was 0.117. For the same compound, the PDI [1, 9] was 0.038, the PDI [1, 10] was 0.136 and the PDI [1, 11] was 0.235 and 0.253. It also gave a Size ([1]; Table 2, LNP lipid:DSPC:Cholesterol:DMG-PEG2k 20:10:68.5:1.5 mol %, EGFP mRNA, N:P 2.4) of 57.5 nm, a Size ([1]; Table 2, LNP lipid:DSPC:Cholesterol:DMG-PEG2k 20:40:38.5:1.5 mol %, EGFP mRNA, N:P 2.4) of 69.2 nm and a Size ([1]; Table 2, LNP lipid:DSPC:Cholesterol:DMG-PEG2k 30:10:58.5:1.5 mol %, EGFP mRNA, N:P 3.6) of 46.5 nm. For the same compound, the Size ([1]; Table 2, LNP lipid:DSPC:Cholesterol:DMG-PEG2k 30:30:38.5:1.5 mol %, EGFP mRNA, N:P 3.6) was 57 nm, the Size ([1]; Table 2, LNP lipid:DSPC:Cholesterol:DMG-PEG2k 40:10:48.5:1.5 mol %, EGFP mRNA, N:P 4.8) was 44.1 nm and the Size ([1]; Table 2, LNP lipid:DSPC:Cholesterol:DMG-PEG2k 40:20:38.5:1.5 mol %, EGFP mRNA, N:P 4.8) was 48.2 nm. For the same compound, the Size ([1]; Table 2, LNP lipid:DSPC:Cholesterol:DMG-PEG2k 50:10:38.5:1.5 mol %, EGFP mRNA, N:P 6) was 110.9 nm and 106 nm, the PDI [1, 12] was 0.27 and the Size ([1]; Table 3, LNP lipid:DSPC:Cholesterol:DMG-PEG2k 50:10:38.5:1.5 mol %, hEPO mRNA, N:P 6) was 100.9 nm. For the same compound, the Zeta potential [2, 4] was −3.357 mV, the Zeta potential [2, 5] was −6.2 mV and the Zeta potential [2, 6] was −8.876 mV. The Zeta potential [2, 7] was −4.4 mV, the Zeta potential [2, 8] was −9.169 mV and the Zeta potential [2, 9] was −6.9 mV. The Zeta potential [2, 10] was −8.503 mV, the “Encapsulation Efficiency %” value [3, 4] was 95.9% and the “Encapsulation Efficiency %” value [3, 5] was 99.7%. The “Encapsulation Efficiency %” value [3, 6] was 99.3%, the “Encapsulation Efficiency %” value [3, 7] was 99.8% and the “Encapsulation Efficiency %” value [3, 8] was 99.2%. The “Encapsulation Efficiency %” value [3, 9] was 99.7%, the “Encapsulation Efficiency %” value [3, 10] was 99.6% and the “Encapsulation Efficiency %” value [3, 11] was 99.4% and 99.8%. For the same compound, the “Encapsulation Efficiency %” value [3, 12] was 98.1%.

Compound `CCCCCCCCC(CCCCCC)C(=O)OCCN(CCOC(=O)C(CCCCCC)CCCCCCCC)C(=O)CN1CCCCC1.Cl` (stereo not shown) [Compound 960d] has a PDI [1, 13] of 0.133, a Size [1, 14] of 74.5 nm and a Zeta potential [2, 13] of −32.3 mV. For the same compound, the “Encapsulation Efficiency %” value [3, 13] was 99.5%.

Work on `CCCCCCCCC(CCCCCC)C(=O)OCCN(CCOC(=O)C(CCCCCC)CCCCCCCC)C(=O)CCCNCC.Cl` (stereo not shown) [Compound 935] yielded a PDI [1, 15] of 0.167, a Size [1, 16] of 111.9 nm and a Zeta potential [2, 15] of −9.5 mV. For the same compound, the “Encapsulation Efficiency %” value [3, 15] was 99.9%.

In the case of `CCCCCCCCC(CCCCCC)C(=O)OCCN(CCOC(=O)C(CCCCCC)CCCCCCCC)C(=O)CCCN(C)C` (stereo not shown) [Compound 807], the PDI [1, 17] is reported as 0.126, the PDI [1, 18] is reported as 0.079 and the Size [1, 18] is reported as 114.7 nm. It also gave a Size ([1]; Table 6, LNP lipid:DSPC:Cholesterol:DMG-PEG2k 50:10:38.5:1.5 mol %, hEPO mRNA, N:P 6) of 77.7 nm, a Zeta potential [2, 17] of −1.9 mV and a Zeta potential [2, 18] of −0.6 mV. The “Encapsulation Efficiency %” value [3, 17] was 98.3% and the “Encapsulation Efficiency %” value [3, 18] was 99.7%.

Compound `CCCCCCCC(CCCCCCC)C(=O)OCCN(CCOC(=O)C(CCCCCCC)CCCCCCC)C(=O)C(N)Cc1ccccc1` (stereo not shown) [Compound 618] has a PDI [1, 19] of 0.304, a PDI [1, 20] of 0.116 and a Size [1, 20] of 211.9 nm. For the same compound, the Size [1, 21] was 53.9 nm, the Zeta potential [2, 19] was −13.69 mV and the Zeta potential [2, 20] was −17.91 mV. The “Encapsulation Efficiency %” value [3, 19] was 97.9% and the “Encapsulation Efficiency %” value [3, 20] was 92.8%.

For `CCCCCCCC/C=C\CCCCCCCC(=O)OCCN(CCOC(=O)C(CCCCCC)CCCCCCCC)C(=O)CCN1CCCCC1` (stereo not shown) [Compound 917h], the PDI [1, 22] was 0.137, the “Size (nm)” value [1, 22] was 89.6 nm and the “Zeta potential (mV)” value ([2]; Table 10, Lipid:DSPC:Cholesterol:DMG-PEG2k 50:10:38.5:1.5 mol %) was −8.2 mV. The “Encapsulation Efficiency %” value ([3]; Table 10, LNP with hEPO mRNA, Lipid:DSPC:Cholesterol:DMG-PEG2k 50:10:38.5:1.5 mol %, N:P ratio 6, Ribogreen assay) was 91.4%.

Compound `CCCCCCCCC(CC)C(=O)OCCN(CCOC(=O)C(CC)CCCCCCCC)C(=O)C(N)Cc1ccccc1` (stereo not shown) [Compound 617] has a PDI [1, 19] of 0.32, a Size [1, 21] of 63.7 nm and a Zeta potential [2, 19] of −5.824 mV. The “Encapsulation Efficiency %” value [3, 19] was 99.1%.

For `CCCCCCCCC(CCCCCC)C(=O)OCCN(CCOC(=O)C(CCCCCC)CCCCCCCC)C(=O)CNC.Cl` (stereo not shown) [Compound 964], the PDI [1, 13] was 0.317, the Size [1, 14] was 73.9 nm and the Zeta potential [2, 13] was −26.13 mV. The “Encapsulation Efficiency %” value [3, 13] was 99.3%.

For `CCCCCCCCC(CCCCCC)C(=O)OCCN(CCOC(=O)C(CCCCCC)CCCCCCCC)C(=O)C(C)CCN(C)C` (stereo not shown) [Compound 987a], the PDI [1] was 0.104, the “Size (nm)” value [1] was 73.2 nm and the “Zeta potential (mV)” value ([2]; Table 11, Lipid:DSPC:Cholesterol:DMG-PEG2k 50:10:38.5:1.5 mol % (ALC-0315: 46.3:9.4:42.7:1.6), HEPES/sodium chloride/sucrose buffer, stored at −80C) was −3.5 mV. For the same compound, the “Encapsulation Efficiency %” value [3] was 95.7%.

`CCCCCCCCC(CCCCCC)C(=O)OCCN(CCOC(=O)C(CCCCCC)CCCCCCCC)C(=O)CCNCCC.Cl` (stereo not shown) [Compound 908] showed a PDI [1, 15] of 0.215, a Size [1, 16] of 69.2 nm and a Zeta potential [2, 15] of −8 mV. The “Encapsulation Efficiency %” value [3, 15] was 100%.
